Reference: EP4014997A1, “STARD1 INHIBITORS FOR THE TREATMENT OF LYSOSOMAL DISORDERS” (Consejo Superior de Investigaciones Científicas (CSIC), priority 2020, dated 2022)

Tests used:
STARD1 [1] = assay: Western blot of STARD1 protein expression in human fibroblasts; format: cell-based; settings: 16 hours
Experimental: (§1) PMH from Npc1^+/+ and human Npc^+/+ control fibroblasts were treated with U18666A (2µg/ml) or HMβCD (2mM) for 16 hours. In some other cases, PMH from Npc1^-/- and Npc^-/- fibroblast from NPC patients were treated with HMβCD as above for control PMH.
(§2) Fibroblasts from NPC patients were transfected with cDNA to overexpress ACDase (ASAH1) (SEQ ID NO: 5; MGC Human ASAH1 Sequence-Verified cDNA Accession: BC016481 Clone ID: 3923451) commercially purchased from GE Dharmacon. Transfection was performed using Lipofectamine2000 (Invitrogen). Briefly, 250000 fibroblasts were incubated with the transfection mixtures containing 250ng of the sobrexpression ACDase vector or the scrambled control-GFP vector. Cells were assayed 48 h after transfection for mRNA and protein levels. SEQ ID NO: 5 >ENA|BC016481|BC016481.1 Homo sapiens N-acylsphingosine amidohydrolase (acid ceramidase) 1, mRNA (cDNA clone MGC:9327 IMAGE:3923451), complete cds. [formula] [formula] [formula]
(§3) 100mg of liver were homogenized with a pestle homogenizer in 1ml of homobuffer (70mM saccharose, 220mM mannitol, 2mM Tris-HCI pH 7.4, 0,1mM EDTA, 0.1% fatty acid free BSA) supplemented with protease and phosphatase inhibitors (Roche). Liver homogenates were diluted 4 times with RIPA lysis buffer (Sigma) with anti-proteases and anti-phosphatases. Cells were washed with PBS and lysed with ice-cold RIPA lysis buffer supplemented with protease and phosphatase inhibitors. Samples were incubated 15min at 4°C, vortexed and spinned down for 5min at 10000rpm. All supernatants were collected and quantified for protein concentration using Quick-Bradford reagent (Bio-Rad) and 20-50µg of protein were subjected to 4-12% SDS-polyacrylamide gel electrophoresis (SDS-PAGE) (Bio-Rad, XT-Criterion). Proteins were electrotransferred at 4°C onto Hybond ECL nitrocellulose membranes (Amersham) and 5% BSA solution in TBS-Tween was used to block the membranes for 1h at room temperature. […] Images were digitally captured by LAS4000 (GE Healthcare) and optical density was analyzed with ImageJ software.

ACDase [2] = assay: Western blot of ACDase protein expression in primary mouse hepatocytes; format: cell-based; settings: 16 hours
Experimental: as §1
(§4) 100mg of liver were homogenized with a pestle homogenizer in 1ml of homobuffer (70mM saccharose, 220mM mannitol, 2mM Tris-HCI pH 7.4, 0,1mM EDTA, 0.1% fatty acid free BSA) supplemented with protease and phosphatase inhibitors (Roche). Liver homogenates were diluted 4 times with RIPA lysis buffer (Sigma) with anti-proteases and anti-phosphatases. Cells were washed with PBS and lysed with ice-cold RIPA lysis buffer supplemented with protease and phosphatase inhibitors. Samples were incubated 15min at 4°C, vortexed and spinned down for 5min at 10000rpm. All supernatants were collected and quantified for protein concentration using Quick-Bradford reagent (Bio-Rad) and 20-50µg of protein were subjected to 4-12% SDS-polyacrylamide gel electrophoresis (SDS-PAGE) (Bio-Rad, XT-Criterion). Proteins were electrotransferred at 4°C onto Hybond ECL nitrocellulose membranes (Amersham) and 5% BSA solution in TBS-Tween was used to block the membranes for 1h at room temperature. Membranes were incubated overnight with the following primary antibodies: anti-PDI (Cell Signaling, 24465), anti-CHOP (Cell Signaling, 2895S), anti-Phospho eiF2A (Cell Signaling, 9721S), anti-eiF2A (Cell Signaling, 9722) and anti-STARD1 (Abcam, ab58013), anti-BIP (Stressgen, SPA826), anti-XBP1 (Santa Cruz, CS-8015) and anti-Mln64 (Santa Cruz SC-292868), ACDAse (Sigma, SAB3500293), LRH-1 (Santa Cruz, Cs-393369) and anti-β-Actin HRP-conjugated (Sigma, A3854). Membranes were thoroughly washed with TBS-Tween and incubated for 45min with their respective HRP-conjugated secondary antibodies. Pierce ECL Western Blotting Substrate (Thermo Scientific) was used to develop the membranes. Images were digitally captured by LAS4000 (GE Healthcare) and optical density was analyzed with ImageJ software.

PMH from Npc1+/+ mice [3] = assay: Filipin and Lamp2 co-staining, confocal microscopy (lysosomal cholesterol); format: cell-based, mouse; settings: U18666A 2µg/ml, 16 hours
Experimental: (§5) PMH were isolated by collagenase perfusion at a flow rate of 7-9ml/min and cultured at a density of 2×10^5 cells in 12-well plates coated with rat tail collagen. Hepatocytes were cultured in DMEM/F12 culture media (Gibco, 21331-020) supplemented with 10% FBS for the first 3 hours post isolation, together with 10.000U/ml Penicillin-Streptomycin (Gibco, 15140-122), 200mM L-Glutamine (Gibco, 25030-024), 7.5mM D-Glucose (Sigma, G6152) and 150mM Hepes pH 7.4 (Sigma,). For subsequent treatments, FBS was replaced for 1mM methionine (Sigma, M5308).
as §1
(§6) PMH were fixed for 15min with 3.7% paraformaldehyde and permeabilized for 5min with 0.2% saponin dissolved in 0.5% BSA-fatty acid free (FAF) in PBS commercial buffer. Cells were blocked with 1% BSA FAF for 15minutes. […] Percentage of cholesterol mass containing mitochondria was analyzed with the Colocalization nBits nimages plugin (Confocal Microscopy Unit, Facultad de Medicina, Universidad de Barcelona) in the ImageJ Software in 5 consecutive images of each experimental condition.

ACDase [4] = assay: Western blot of ACDase protein expression in human fibroblasts; format: cell-based; settings: 16 hours
Experimental: as §1, §2, §3

ER stress markers = assay: Western blot of ER stress markers in primary mouse hepatocytes; format: cell-based; settings: incubation of Npc1+/+ PMH with U18666A
Experimental: as §1, §3

STARD1 [5] = assay: Western blot of STARD1 protein expression in primary mouse hepatocytes; format: cell-based; settings: 16 hours
Experimental: as §1, §4

PMH from Npc1+/+ mice [6] = assay: Filipin and cytochrome c co-staining, confocal microscopy (mitochondrial cholesterol); format: cell-based, mouse; settings: 16 hours
Experimental: as §5, §1
(§7) PMH were fixed for 15min with 3.7% paraformaldehyde and permeabilized for 5min with 0.2% saponin dissolved in 0.5% BSA-fatty acid free (FAF) in PBS commercial buffer. Cells were blocked with 1% BSA FAF for 15minutes. Cytochrome c (Cytc) (BD Pharmigen, #556432) and Lamp2 (Abcam, #ab13524) primary antibodies were incubated overnight in BSA 1% followed by a secondary antibody for 1 hour at room temperature in BSA 0.1%. Filipin ([…], Sigma) was added during the secondary antibody incubation and the following steps were performed in the dark. Stained samples were embedded in fluoromont (Sigma) and digital images were taken in a Leica SP2 laser scanning confocal microscope equipped with UV excitation, an argon laser, a 633/1.32 OIL PH3 CS objective and a confocal pinhole set at 1 Airy unit. All the confocal images shown were single optical sections. Scale bar represents 25 µm. Percentage of cholesterol mass containing mitochondria was analyzed with the Colocalization nBits nimages plugin (Confocal Microscopy Unit, Facultad de Medicina, Universidad de Barcelona) in the ImageJ Software in 5 consecutive images of each experimental condition.

NPC child patients = settings: intravenous instillation 2500 mg/kg per time, 1 to 3 times per week, more than 1 year; cited from earlier work
[7] = system: Npc1 gene-defective (Npc1-/-) mice; settings: cited from earlier work
Npc+/+ fibroblasts = assay: Filipin and cytochrome c co-staining, confocal microscopy (mitochondrial cholesterol); format: cell-based, human; settings: HMβCD 2mM, 16 hours, co-treatment with U18666A; Npc+/+ fibroblasts from control patients
Experimental: (§8) Fibroblasts from patients with NPC disease used have been previously described (Torres et al., Redox Biol. 2017 Apr;11:60-72). Briefly, cultured human skin fibroblasts from control individuals (HSF; GM5659D) and patients with NPC disease were a generous gift from Thierry Levade, Laboratoire de Biochimie Metabolique, Institut Federatif de Biologie (CHU Toulouse, France) or obtained from Coriell Institute for Medical Research (GM03123, NJ, USA) and were grown at 37°C in 5% CO2. DMEM (Gibco) culture medium was supplemented with 10% fetal bovine serum (FBS, Gibco, 10-270-106) and 10.000U/ml Penicillin-Streptomycin (Gibco, 15140-122).
as §1, §6

[8] = system: Npc-/- fibroblasts from NPC patients; assay: as above; format: cell-based, human; settings: HMβCD 2mM, 16 hours
Experimental: as §8
PMH from Npc1^+/+ and human Npc^+/+ control fibroblasts were treated with U18666A (2µg/ml) or HMβCD (2mM) for 16 hours. In some other cases, PMH from Npc1^-/- and Npc^-/- fibroblast from NPC patients were treated with HMβCD as above for control PMH. […]
as §6, with “buffer.” for “buffer. Cells were blocked with 1% BSA FAF for 15minutes.”

MLN64 [9] = assay: Western blot of MLN64 protein expression in primary mouse hepatocytes; format: cell-based; settings: HMβCD 2mM, 16 hours, co-treatment with U18666A; PMH from Npc1+/+ mice
Experimental: as §1, §3

MLN64 [10] = assay: Western blot of MLN64 protein expression in human fibroblasts; format: cell-based; settings: HMβCD 2mM, 16 hours, co-treatment with U18666A; control Npc+/+ fibroblasts
Experimental: as §1
as §2, with “SEQ ID NO: 5 >ENA|BC016481|BC016481.1 Homo sapiens N-acylsphingosine amidohydrolase (acid ceramidase) 1, mRNA (cDNA clone MGC:9327 IMAGE:3923451), complete cds. [formula] [formula] [formula]” left out
100mg of liver were homogenized with a pestle homogenizer in 1ml of homobuffer (70mM saccharose, 220mM mannitol, 2mM Tris-HCI pH 7.4, 0,1mM EDTA, 0.1% fatty acid free BSA) supplemented with protease and phosphatase inhibitors (Roche). […] All supernatants were collected and quantified for protein concentration using Quick-Bradford reagent (Bio-Rad) and 20-50µg of protein were subjected to 4-12% SDS-polyacrylamide gel electrophoresis (SDS-PAGE) (Bio-Rad, XT-Criterion). […] Images were digitally captured by LAS4000 (GE Healthcare) and optical density was analyzed with ImageJ software.

PMH from Npc1-/- mice = assay: Filipin and cytochrome c co-staining, confocal microscopy (mitochondrial cholesterol); format: cell-based, mouse; settings: HMβCD 2mM, 16 hours
Experimental: as §5, §1, §7

patients = settings: NPC patients; cited from earlier work
[11] = system: ER stress markers (BIP, PDI and CHOP); assay: Western blot of ER stress markers in human fibroblasts; format: cell-based; settings: control Npc+/+ fibroblasts
Experimental: as §3

[12] = U18666A 2µg/ml, PMH from Npc1+/+ mice
[13] = HMβCD 2mM, co-treatment with U18666A, control Npc+/+ fibroblasts
[14] = HMβCD 2mM, Npc-/- fibroblasts from NPC patients, no U18666A
[15] = HMβCD 2mM, co-treatment with U18666A, PMH from Npc1+/+ mice
[16] = HMβCD 2mM, PMH from Npc1-/- mice, no U18666A

## CCN(CC)CCO[C@H]1CC[C@@]2(C)C(=CC[C@@H]3[C@@H]2CC[C@]2(C)C(=O)CC[C@@H]32)C1 [U18666A]
STARD1 [1]; U18666A 2µg/ml, Npc+/+ fibroblasts
  STARD1 expression: significantly increased STARD1
ACDase [2]; [12]
  expression of ACDase: decreased the expression of ACDase
PMH from Npc1+/+ mice [3]
  lysosomal cholesterol accumulation (filipin and Lamp2 staining): significantly increased lysosomal cholesterol accumulation
ACDase [4]; U18666A 2µg/ml, control Npc+/+ fibroblasts
  expression of ACDase: decreased the expression of ACDase
ER stress markers
  ER stress markers: failed to induce ER stress markers
STARD1 [5]; [12]
  STARD1 expression: significantly increased STARD1
PMH from Npc1+/+ mice [6]; U18666A 2µg/ml, Npc1+/+ PMH
  accumulation of cholesterol in mitochondria (colocalization of filipin and CytC staining): stimulated the accumulation of cholesterol in mitochondria

## CC(O)COC[C@H]1O[C@@H]2O[C@H]3[C@H](O)[C@@H](O)[C@@H](O[C@H]4[C@H](O)[C@@H](O)[C@@H](O[C@H]5[C@H](O)[C@@H](O)[C@@H](O[C@H]6[C@H](O)[C@@H](O)[C@@H](O[C@H]7[C@H](O)[C@@H](O)[C@@H](O[C@H]8[C@H](O)[C@@H](O)[C@@H](O[C@H]1[C@H](O)[C@H]2O)O[C@@H]8COCC(C)O)O[C@@H]7COCC(C)O)O[C@@H]6COCC(C)O)O[C@@H]5COCC(C)O)O[C@@H]4COCC(C)O)O[C@@H]3COCC(C)O (stereo partly drawn) [HMβCD, 2-hydroxypropyl-β-cyclodextrin]
NPC child patients
  nervous symptom: saw no improvement
  side effects: severe side effects have been observed
  splenomegaly and brain wave: certain effect of reduction of splenomegaly and improvement in a brain wave
STARD1 [1]; [13]
  increase of STARD1 induced by U18666A: reverse the increase of STARD1
STARD1 [1]; [14]
  expression levels of STARD1: exhibited the same changes induced by HMβCD
ACDase [2]; [15]
  repression of ACDase induced by U18666A: reverse the increase of STARD1 and the repression of ACDase
ACDase [2]; [16]
  expression levels of ACDase: exhibited the same changes induced by HMβCD
[7]; directly administered into the brain, Npc1-/- mice
  improving effect, direct administration into the brain compared with systemic administration: increased a few hundred times
[7]; intravenously administered, Npc1-/- mice
  medical state or survival: effective in improving the medical state or prolonging survival
[7]; mouse, in vivo
  crossing of the blood brain barrier: inability of HPBCD to cross the blood brain barrier
Npc+/+ fibroblasts
  U18666A-induced cholesterol accumulation and trafficking to mitochondria: prevented U18666A-induced cholesterol accumulation and trafficking to mitochondria
ACDase [4]; [13]
  repression of ACDase induced by U18666A: reverse the increase of STARD1 and the repression of ACDase
ACDase [4]; [14]
  expression levels of ACDase: exhibited the same changes induced by HMβCD
[8]
  mitochondrial cholesterol increase: exhibited the same changes induced by HMβCD
MLN64 [9]
  increased expression of MLN64 induced by U18666A: prevented the increased expression of MLN64
STARD1 [5]; [15]
  increase of STARD1 induced by U18666A: reverse the increase of STARD1
STARD1 [5]; [16]
  expression levels of STARD1: exhibited the same changes induced by HMβCD
MLN64 [10]
  increased expression of MLN64 induced by U18666A: prevented the increased expression of MLN64
PMH from Npc1-/- mice
  mitochondrial cholesterol increase: exhibited the same changes induced by HMβCD
PMH from Npc1+/+ mice [6]; [15]
  U18666A-induced cholesterol accumulation and trafficking to mitochondria: prevented U18666A-induced cholesterol accumulation and trafficking to mitochondria

## CCCCN1C[C@H](O)[C@@H](O)[C@H](O)[C@H]1CO [miglustat]
patients
  life span of patients: extends the life span of patients

## tunicamycin
[11]
  markers of ER stress (BIP, PDI and CHOP): induced markers of ER stress
